Reference: PubChem BioAssay AID336 (DTP/NCI, 2004)
Several values for one entry are separate records, joined by “and”; a condition that tells them apart may be missing. Equal values may be shown once. Inconclusive results and toxic doses are left out.

Tested on: BDF1 mice, P388/VCR leukemia ip, median survival T/C
Experiment: NCI In Vivo Anticancer Drug Screen. Data for tumor model P388 Leukemia resistant to Vincristine; NSC 67574 (intraperitoneal) in B6D2F1 (BDF1) mice
Conditions: endpoint: median survival time, higher = longer survival
Procedure: The antitumor activity of compounds was measured in mice bearing transplantable tumors. Survival or tumor size were measured and the results are expressed as the measurement made in the treated group (T) divided by the measurement made in the vehicle treated control group (C). The tumor model used in this assay is P388 Leukemia resistant to Vincristine; NSC 67574 (intraperitoneal) in B6D2F1 (BDF1) mice

[1] = dose: 18.0 mg/kg/injection, schedule: Q01DX010 (ip), vehicle: saline
[2] = dose: 60.0 mg/kg/injection, schedule: Q01DX010 (ip), vehicle: saline
[3] = dose: 25.0 mg/kg/injection, schedule: Q01DX010 (ip), vehicle: saline
[4] = dose: 50.0 mg/kg/injection, schedule: Q01DX010 (ip), vehicle: saline
[5] = dose: 200.0 mg/kg/injection, schedule: Q01DX010 (ip), vehicle: saline
[6] = dose: 8.0 mg/kg/injection, schedule: Q01DX010 (ip), vehicle: saline

## O=C(Nc1ccc(C2=NCCN2)cc1)c1ccc(NC(=O)c2ccc(C3=NCCN3)cc2)cc1
[1]
  T/C: 104 % of control
dose: 27.0 mg/kg/injection, schedule: Q01DX010 (ip), vehicle: saline
  T/C: 108 % of control
dose: 40.0 mg/kg/injection, schedule: Q01DX010 (ip), vehicle: saline
  T/C: 113 % of control
[2]
  T/C: 113 % of control

## O=C(Nc1ccc(C2=NCCN2)cc1)Nc1cccc(NC(=O)Nc2ccc(C3=NCCN3)cc2)c1
[2]
  T/C: 179 % of control and 183 % of control
dose: 120.0 mg/kg/injection, schedule: Q01DX010 (ip), vehicle: saline
  T/C: 241 % of control and 279 % of control
dose: 480.0 mg/kg/injection, schedule: Q01DX010 (ip), vehicle: saline
  T/C: 108 % of control and 116 % of control

## CN(C)c1nc(N(C)C)nc(N(C)C)n1
dose: 18.8 mg/kg/injection, schedule: Q01DX010 (ip), vehicle: saline
  T/C: 100 % of control
dose: 37.5 mg/kg/injection, schedule: Q01DX010 (ip), vehicle: saline
  T/C: 100 % of control
dose: 75.0 mg/kg/injection, schedule: Q01DX010 (ip), vehicle: saline
  T/C: 100 % of control
dose: 150.0 mg/kg/injection, schedule: Q01DX010 (ip), vehicle: saline
  T/C: 104 % of control

## CO[C@@]12[C@H](COC(N)=O)C3=C(C(=O)C(C)=C(N)C3=O)N1C[C@@H]1N[C@@H]12
dose: 1.08 mg/kg/injection, schedule: Q04DX003 (ip), vehicle: saline
  T/C: 184 % of control
dose: 1.8 mg/kg/injection, schedule: Q04DX003 (ip), vehicle: saline
  T/C: 221 % of control
dose: 3.0 mg/kg/injection, schedule: Q04DX003 (ip), vehicle: saline
  T/C: 184 % of control
dose: 5.0 mg/kg/injection, schedule: Q04DX003 (ip), vehicle: saline
  T/C: 124 % of control

## CN(C)/N=N/c1nc[nH]c1C(N)=O
[3]
  T/C: 100 % of control and 116 % of control
[4]
  T/C: 107 % of control
[5]
  T/C: 107 % of control and 116 % of control

## O=C(Nc1ccc(C2=NCCN2)cc1)c1ccc(C(=O)Nc2ccc(C3=NCCN3)cc2)c(NC(=O)c2ccc(C(=O)Nc3cc(C(=O)Nc4ccc(C5=NCCN5)cc4)ccc3C(=O)Nc3ccc(C4=NCCN4)cc3)cc2)c1
[3]
  T/C: 109 % of control
[4]
  T/C: 109 % of control
dose: 100.0 mg/kg/injection, schedule: Q01DX010 (ip), vehicle: saline
  T/C: 104 % of control
[5]
  T/C: 104 % of control

## O=C(Nc1ccc(C2=NCCN2)cc1)c1cc(C(=O)Nc2ccc(C3=NCCN3)cc2)cc([N+](=O)[O-])c1
dose: 167.0 mg/kg/injection, schedule: Q01DX010 (ip), vehicle: saline
  T/C: 95 % of control
dose: 250.0 mg/kg/injection, schedule: Q01DX010 (ip), vehicle: saline
  T/C: 100 % of control
dose: 375.0 mg/kg/injection, schedule: Q01DX010 (ip), vehicle: saline
  T/C: 95 % of control
dose: 512.0 mg/kg/injection, schedule: Q01DX010 (ip), vehicle: saline
  T/C: 100 % of control

## O=P1(N(CCCl)CCCl)NCCCO1 (stereo not drawn)
dose: 144.0 mg/kg/injection, schedule: Q01DX001 (ip), vehicle: saline
  T/C: 181 % of control
dose: 240.0 mg/kg/injection, schedule: Q01DX001 (ip), vehicle: saline
  T/C: 194 % of control

## CC(C)[C@](O)(C(=O)OCC1=CC[N+]2([O-])CC[C@@H](O)[C@@H]12)[C@H](C)O (stereo partly drawn)
dose: 130.0 mg/kg/injection, schedule: Q01DX009 (ip), vehicle: water
  T/C: 98 % of control
dose: 216.0 mg/kg/injection, schedule: Q01DX009 (ip), vehicle: water
  T/C: 106 % of control
dose: 360.0 mg/kg/injection, schedule: Q01DX009 (ip), vehicle: water
  T/C: 113 % of control
dose: 600.0 mg/kg/injection, schedule: Q01DX009 (ip), vehicle: water
  T/C: 107 % of control

## CCCNC(=NC)c1ccc(NC(=O)c2ccc(C(=O)Nc3ccc(C(=NC)NCCC)cc3)cc2)cc1
dose: 5.2 mg/kg/injection, schedule: Q01DX010 (ip), vehicle: saline
  T/C: 113 % of control
[6]
  T/C: 113 % of control
dose: 12.0 mg/kg/injection, schedule: Q01DX010 (ip), vehicle: saline
  T/C: 118 % of control
[1]
  T/C: 100 % of control

## c1ccc(CNc2ncnc3[nH]ncc23)cc1
[6]
  T/C: 92 % of control and 100 % of control
dose: 16.0 mg/kg/injection, schedule: Q01DX010 (ip), vehicle: saline
  T/C: 88 % of control and 96 % of control
dose: 32.0 mg/kg/injection, schedule: Q01DX010 (ip), vehicle: saline
  T/C: 100 % of control
dose: 64.0 mg/kg/injection, schedule: Q01DX010 (ip), vehicle: saline
  T/C: 92 % of control

## CS(=O)(=O)OCCCCOS(C)(=O)=O
dose: 6.25 mg/kg/injection, schedule: Q01DX010 (ip), vehicle: saline
  T/C: 88 % of control and 96 % of control
[3]
  T/C: 92 % of control
[4]
  T/C: 96 % of control
